Assay [1] addresses T1, mGlu1 A59H/G266H mutant (Rattus norvegicus, UniProt P23385, A59H/G266H).
T1 construct: expressed in transfected cells; host or cells: HEK293
Description: Fura-2 Ca2+ imaging in HEK293 cells expressing mGlu1 A59H/G266H. As to conditions: Fig.1e. The assay is classed as cell-based.

The target in a further assay is T2, WT mGlu1 (Rattus norvegicus, UniProt P23385). Further: test concentration or dose not given here.
T2 construct: expressed in transfected cells; host or cells: HEK293
T2 sequence (P23385 19-1199): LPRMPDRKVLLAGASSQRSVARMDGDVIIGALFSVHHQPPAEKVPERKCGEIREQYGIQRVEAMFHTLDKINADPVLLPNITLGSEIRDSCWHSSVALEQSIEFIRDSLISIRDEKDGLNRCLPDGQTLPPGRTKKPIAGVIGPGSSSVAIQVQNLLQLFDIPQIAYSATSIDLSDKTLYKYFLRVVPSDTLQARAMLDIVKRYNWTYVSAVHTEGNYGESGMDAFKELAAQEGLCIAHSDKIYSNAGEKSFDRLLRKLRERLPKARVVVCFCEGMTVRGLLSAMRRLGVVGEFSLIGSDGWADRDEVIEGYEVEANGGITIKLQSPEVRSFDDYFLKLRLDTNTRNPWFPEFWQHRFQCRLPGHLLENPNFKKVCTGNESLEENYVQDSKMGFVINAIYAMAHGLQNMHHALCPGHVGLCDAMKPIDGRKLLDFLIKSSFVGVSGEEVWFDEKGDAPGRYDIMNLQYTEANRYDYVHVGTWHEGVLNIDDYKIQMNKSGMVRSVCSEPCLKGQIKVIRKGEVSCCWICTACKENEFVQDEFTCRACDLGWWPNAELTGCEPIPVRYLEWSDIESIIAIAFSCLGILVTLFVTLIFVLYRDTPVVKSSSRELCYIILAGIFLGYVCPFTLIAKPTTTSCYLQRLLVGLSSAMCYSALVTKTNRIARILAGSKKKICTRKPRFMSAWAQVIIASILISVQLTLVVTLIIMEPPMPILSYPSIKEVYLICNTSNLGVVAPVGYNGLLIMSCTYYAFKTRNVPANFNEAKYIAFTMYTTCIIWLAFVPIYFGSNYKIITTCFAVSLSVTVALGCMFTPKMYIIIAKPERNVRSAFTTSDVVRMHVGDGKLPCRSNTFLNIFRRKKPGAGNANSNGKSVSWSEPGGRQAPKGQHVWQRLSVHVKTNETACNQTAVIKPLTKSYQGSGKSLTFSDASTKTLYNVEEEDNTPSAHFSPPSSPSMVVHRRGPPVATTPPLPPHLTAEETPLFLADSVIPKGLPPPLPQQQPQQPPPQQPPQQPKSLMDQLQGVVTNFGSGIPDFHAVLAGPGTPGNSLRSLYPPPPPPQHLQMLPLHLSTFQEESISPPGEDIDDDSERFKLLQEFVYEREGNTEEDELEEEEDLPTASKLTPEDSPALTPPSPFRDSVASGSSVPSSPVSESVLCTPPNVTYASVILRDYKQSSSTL
The assay is classed as cell-based.

The next assay has as its target T3, mGlu1 P57H/N264H mutant (Rattus norvegicus, UniProt P23385, N264H/P57H).
T3 construct: expressed in transfected cells; host or cells: HEK293
Description: Fura-2 Ca2+ imaging in HEK293 cells expressing mGlu1 P57H/N264H. The assay is classed as cell-based.

The next assay deals with T4, mGlu1 K61H/N264H mutant (Rattus norvegicus, UniProt P23385, K61H/N264H).
T4 construct: expressed in transfected cells; host or cells: HEK293
T4 sequence (P23385 19-1199 K61H/N264H): as the sequence (P23385 19-1199) above, with K43H, N246H counted along it
The assay is described as follows: Fura-2 Ca2+ imaging in HEK293 cells expressing mGlu1 K61H/N264H. Type of assay: cell-based.

Assay [2] concerns the target T5, mGlu1 A59H/A265H mutant (Rattus norvegicus, UniProt P23385, A265H/A59H).
T5 construct: expressed in transfected cells; host or cells: HEK293
Description: Fura-2 Ca2+ imaging in HEK293 cells expressing mGlu1 A59H/A265H. Type of assay: cell-based. The following applies: single-cell values.

Assay [3] deals with T1, mGlu1 A59H/G266H mutant. The assay is described as follows: Fura-2 Ca2+ imaging in HEK293 cells expressing mGlu1 A59H/G266H. The assay is classed as cell-based. As to conditions: single-cell values.
Assay [4] deals with mGlu1 construct not given. Description: Fura-2 Ca2+ imaging in HEK293 cells, source data Suppl Fig1, right group (c18-c26); construct not given. Type of assay: cell-based, rat. As to conditions: single-cell values, cells #15-#20; right group of third block. From the text: (§1) Supplement 41467_2022_30828_MOESM6_ESM.zip/Ojima et al_source data_Suppl Fig.xlsx, sheet "Suppl Fig1" | column: Glu; NiCl2; CuCl2; ZnCl2; CdCl2; Na2PdCl2; Pd(bpy)

Assay [5] addresses T5, mGlu1 A59H/A265H mutant. The assay is described as follows: Fura-2 Ca2+ imaging in HEK293 cells expressing mGlu1 A59H/A265H. Type of assay: cell-based. The following applies: Fig.1e.
The test system of assay [6] is mGlu1 construct not given. The assay is described as follows: Fura-2 Ca2+ imaging in HEK293 cells, source data Suppl Fig1, middle group (c9-c17); construct not given. The assay is classed as cell-based, rat. As to conditions: single-cell values, cells #15-#20; middle group of third block.
Source text: as §1

In a further assay the target is T6, mGlu1 P58H/N264H mutant (Rattus norvegicus, UniProt P23385, N264H/P58H).
T6 construct: expressed in transfected cells; host or cells: HEK293
T6 sequence (P23385 19-1199 P58H/N264H): as the sequence (P23385 19-1199) above, with P40H, N246H counted along it
The assay is described as follows: Fura-2 Ca2+ imaging in HEK293 cells expressing mGlu1 P58H/N264H. Type of assay: cell-based.

The subject of assay [7] is mGlu1 construct not given. The assay is described as follows: Fura-2 Ca2+ imaging in HEK293 cells, source data Suppl Fig1, left group (c0-c8); construct not given. As to conditions: single-cell values, cells #15-#20; left group of third block. The assay is classed as cell-based, rat.
Source text: as §1

Another assay deals with T7, mGlu1 E60H/N264H mutant (Rattus norvegicus, UniProt P23385, E60H/N264H).
T7 construct: expressed in transfected cells; host or cells: HEK293
T7 sequence (P23385 19-1199 E60H/N264H): as the sequence (P23385 19-1199) above, with E42H, N246H counted along it
Description: Fura-2 Ca2+ imaging in HEK293 cells expressing mGlu1 E60H/N264H. Type of assay: cell-based.

Assay [8] has as its system HEK293 cells, vector control. Description: Fura-2 Ca2+ imaging in HEK293 cells transfected with control vector (Vec). The assay is classed as cell-based. The following applies: single-cell values #1-#20.
Assay [9] relates to HEK293 cells, vector control. The description is as above. Type of assay: cell-based. The following applies: Fig.1e. From the text:
Supplement 41467_2022_30828_MOESM6_ESM.zip/Ojima et al_source data_Main Figure.xlsx, sheet "Fig.1e" | column: Vec

For a further assay, the target named is T8, mGlu1 A59H/N264H mutant (Rattus norvegicus, UniProt P23385, A59H/N264H).
T8 construct: expressed in transfected cells; host or cells: HEK293
T8 sequence (P23385 19-1199 A59H/N264H): as the sequence (P23385 19-1199) above, with A41H, N246H counted along it
The assay is described as follows: Fura-2 Ca2+ imaging in HEK293 cells expressing mGlu1 A59H/N264H. The assay is classed as cell-based.

SMILES strings stand for the structures. Values joined by “and” are separate entries in the source; they are usually repeats but may differ in a detail not shown here. Identical values can stand only once.
Wherever Ca2+ response (delta ratio), A59H/G266H is given: test concentration or dose not given here.
Wherever Ca2+ response of individual cells (source data Suppl Fig1), Vec is given: test concentration or dose not given here.

T3 sequence (P23385 19-1199 P57H/N264H): as the sequence (P23385 19-1199) above, with P39H, N246H counted along it
T1 sequence (P23385 19-1199 A59H/G266H): as the sequence (P23385 19-1199) above, with A41H, G248H counted along it
T5 sequence (P23385 19-1199 A59H/A265H): as the sequence (P23385 19-1199) above, with A41H, A247H counted along it

On to `[Cl][Ni][Cl]` [NiCl2], for which the “Ca2+ response (delta ratio), A59H/G266H” value at mGlu1 A59H/G266H mutant [1] is recorded as -3.81E-05. In addition, at WT mGlu1 (Fig.1e), the “Ca2+ response (delta ratio), WT” value was 0.03319. The “Ca2+ response of individual cells (source data Suppl Fig1), WT” value at WT mGlu1 (single-cell values #1-#20, WT) is -0.005477 and -0.01458 and 0.001892 and -0.01835 and 0.1195 and 0.01671 and 0.05379 and 0.4457 and 0.004608 and -0.002423 and 0.004238 and 0.01116 and 0.1174 and -0.002515 and -0.001223 and -0.001015 and -0.0129 and -0.004708 and 0.01682 and -0.06482. Moreover, the “Ca2+ response (delta ratio), P57H/N264H” value on mGlu1 P57H/N264H mutant (Fig.1e) was found to be 0.01834. Moreover, the “Ca2+ response of individual cells (source data Suppl Fig1), P57H/N264H” value on mGlu1 P57H/N264H mutant (single-cell values #1-#20, P57H/N264H) was -0.01177 and -0.0082 and 0.005215 and 0.04513 and 0.01995 and 0.003931 and -0.01436 and 0.02328 and -0.02887 and -0.004769 and -0.02686 and -0.008069 and 0.003369 and 0.01493 and -0.02254 and -0.001223 and 0.3415 and -0.007623 and 0.04519 and -0.0014. Moreover, the “Ca2+ response (delta ratio), K61H/N264H” value at mGlu1 K61H/N264H mutant (Fig.1e) is -0.01365. Also, the “Ca2+ response of individual cells (source data Suppl Fig1), K61H/N264H” value on mGlu1 K61H/N264H mutant (single-cell values, K61H/N264H) was -0.03782 and -0.01632 and -0.02464 and 0.009846 and -0.01781 and 0.02198 and -0.0009692 and 0.02142 and -0.009608 and -0.02934 and -0.05039 and -0.01796 and -0.007623 and -0.01945. Moreover, the “Ca2+ response of individual cells (source data Suppl Fig1), A59H/A265H” value on mGlu1 A59H/A265H mutant [2] was -0.0004462 and -0.005215 and 0.006554 and -0.007815 and 0.01005 and -0.006508 and -0.02278 and 0.001031 and 0.01621 and 0.004377 and -0.02859 and 0.008423 and 0.09357 and 0.07873. Also, the “Ca2+ response of individual cells (source data Suppl Fig1), A59H/G266H” value on mGlu1 A59H/G266H mutant [3] was -0.007338 and -0.001015 and -0.03149 and 0.03385 and 0.01174 and 0.008792 and -0.03335 and -0.003362 and 0.01265 and 0.02216 and 0.003731 and -0.008569 and 0.01177 and -0.002115. In addition, the “Ca2+ response of individual cells (source data, sheet Suppl Fig1)” value in assay [4] is 0.03285 and -0.01932 and -0.04406 and 0.003838 and -0.02115 and 0.02962; in [6] it was 0.03642 and 0.005192 and 0.02775 and -0.01323 and -0.002362 and 0.009469; in assay [7], -0.01619 and -0.01292 and 0.01722 and -0.04921 and -0.009638 and -0.02348. In addition, at mGlu1 A59H/A265H mutant [5], the “Ca2+ response (delta ratio), A59H/A265H” value was determined as 0.01054. For the same molecule, at mGlu1 P58H/N264H mutant (Fig.1e), the “Ca2+ response (delta ratio), P58H/N264H” value stood at 0.05353. Also, at mGlu1 P58H/N264H mutant (single-cell values #1-#20, P58H/N264H), the “Ca2+ response of individual cells (source data Suppl Fig1), P58H/N264H” value was 0.03009 and 0.04043 and -0.04005 and 0.07079 and 0.04304 and 0.04053 and 0.04913 and 0.06845 and 0.2599 and -0.02289 and 0.03599 and 0.03797 and 0.05281 and 0.1306 and 0.05504 and 0.04257 and 0.06472 and 0.07143 and 0.03615 and 0.003946. On mGlu1 E60H/N264H mutant (Fig.1e), the “Ca2+ response (delta ratio), E60H/N264H” value is recorded as -0.01792. Besides, at mGlu1 E60H/N264H mutant (single-cell values #1-#20, E60H/N264H), the “Ca2+ response of individual cells (source data Suppl Fig1), E60H/N264H” value was -0.0467 and -0.05411 and -0.02817 and -0.02148 and 0.004623 and 0.0091 and -0.02117 and -0.04309 and -0.01538 and -0.003069 and -0.02522 and -0.003569 and 0.01539 and -0.02995 and -0.01439 and -0.004777 and -0.04676 and -0.0003 and -0.01138. Also, the “Ca2+ response of individual cells (source data Suppl Fig1), Vec” value in assay [8] was -0.01071 and 0.01858 and -0.01644 and -0.01578 and -0.0028 and -0.01812 and -0.01767 and -0.01609 and -0.0009 and -0.0156 and -0.02858 and -0.009415 and -0.001254 and -0.01445 and -0.004377 and -0.001977 and -0.0008692 and 0.006415 and 0.01396 and 0.004169. Further, the “Ca2+ response (delta ratio), Vec” value in [9] is recorded as -0.006595. The “Ca2+ response (delta ratio), A59H/N264H” value on mGlu1 A59H/N264H mutant (Fig.1e) was 0.05683. Moreover, the “Ca2+ response of individual cells (source data Suppl Fig1), A59H/N264H” value at mGlu1 A59H/N264H mutant (single-cell values #1-#20, A59H/N264H) was 0.3729 and -0.001931 and -0.001046 and 0.01178 and 0.01916 and -0.01828 and -0.02652 and 0.02399 and 0.0008077 and 0.2216 and -0.004754 and -0.01916 and -0.02225 and 0.2474 and 0.3157 and 0.001138 and -0.0037 and -0.007646 and -0.0005385 and 0.0279.

Values taken from paper PMC9203742 (Nature Communications, 2022).
